These results are taken from patent US20250019385A1, “SPIROCYCLIC ANNULATED 2-AMINO-3-CYANO THIOPHENES AND DERIVATIVES FOR THE TREATMENT OF CANCER” (Boehringer Ingelheim International GmbH, priority 2023, published 2025).

As usually defined, the IC50 is the concentration that gives 50% inhibition.

Chain of KRAS (G12D)::CRAF protein::protein interaction (P01116 other isoform, or with tags, fused parts or gaps G12D): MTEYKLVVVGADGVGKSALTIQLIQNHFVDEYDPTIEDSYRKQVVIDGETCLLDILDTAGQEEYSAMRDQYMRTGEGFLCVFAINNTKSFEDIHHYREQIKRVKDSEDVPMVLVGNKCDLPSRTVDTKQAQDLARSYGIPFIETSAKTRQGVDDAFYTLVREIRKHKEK
Chain of CYP3A4 (P08684 whole entry): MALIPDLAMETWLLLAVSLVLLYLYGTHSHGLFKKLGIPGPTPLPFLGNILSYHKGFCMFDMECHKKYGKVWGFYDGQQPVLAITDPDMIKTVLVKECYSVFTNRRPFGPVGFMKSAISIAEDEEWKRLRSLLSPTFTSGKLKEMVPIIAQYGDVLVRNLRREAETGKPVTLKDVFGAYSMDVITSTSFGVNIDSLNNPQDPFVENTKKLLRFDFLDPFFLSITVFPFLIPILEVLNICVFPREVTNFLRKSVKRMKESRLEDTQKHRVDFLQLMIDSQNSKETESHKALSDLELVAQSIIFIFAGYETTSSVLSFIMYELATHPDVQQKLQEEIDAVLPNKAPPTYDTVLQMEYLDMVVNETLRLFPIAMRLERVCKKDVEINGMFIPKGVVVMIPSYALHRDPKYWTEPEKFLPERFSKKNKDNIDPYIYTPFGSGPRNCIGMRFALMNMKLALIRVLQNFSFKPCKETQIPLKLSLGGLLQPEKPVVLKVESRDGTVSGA

The first series has as its target KRAS (G12D)::CRAF protein::protein interaction (Homo sapiens (Human), UniProt P01116, G12D). The series is described as follows: KRAS TR-FRET assay (KRAS G12D::CRAF, GTP). Format: binding.
Settings: not given
The method, then:
This assay measures the inhibitory effect of compounds on KRAS::CRAF protein::protein interactions in the presence of GTP using Time-resolved fluorescence energy transfer (TR-FRET).
The following wildtype or mutant alleles of KRAS and CRAF protein have been used at the given concentrations:
KRAS (G12D) 1-169, N-terminal 6His-tag, C-terminal avi-tag (Xtal BioStructures, Inc.); final assay concentration 15 nM,
CRAF Ras binding domain, GST-tag, TEV cleavage site (Boehringer Ingelheim in house protein prep); final assay concentration 15 nM.
Test compounds dissolved in DMSO were dispensed onto assay plates (Proxiplate 384 PLUS, white, PerkinElmer; 6008289) using an Access Labcyte Workstation with the Labcyte Echo 55x. For the chosen highest assay concentration of 100 μM, 150 nl of compound solution was transferred from a 10 mM DMSO compound stock solution. A series of eleven fivefold dilutions per compound was transferred to the assay plate, compound dilutions were tested in duplicates. DMSO was added as backfill to a total volume of 150 nl.
The assay runs on a fully automated robotic system. To 150 nl of compound dilution 15 μl of a mix including the respective KRAS allele, CRAF (e.g. KRAS (G12D)::CRAF; final assay concentrations see above), GTP nucleotide (Sigma G8877; final assay concentration 10 μM), Lance Eu—W1024 labeled Streptavidin (PerkinElmer, Cat No AD0063; final assay concentration 1.5 nM) and Anti-GST surelight APC (PerkinElmer, Cat No AD0059G; final assay concentration 30 nM) in assay buffer (1×PBS, 0.1% BSA, 0.05% Tween 20) are added into columns 1-23 and 15 μL of the solution without the respective KRAS allele were added to row 24.
Plates are kept at room temperature in a darkened incubator. After 60 minutes incubation time the signal is measured in a PerkinElmer Envision HTS Multilabel Reader using the TR-FRET LANCE Ultra specs from PerkinElmer.
Each plate contains 16 wells of a negative control (diluted DMSO instead of test compound; w respective KRAS allele; column 23) and 16 wells of a positive control (diluted DMSO instead of test compound; w/o respective KRAS allele; column 24).
IC50 values were calculated and analyzed with Boehringer Ingelheim's MEGALAB 50 application using a 4 parametric logistic model.
Tables of example compounds disclosed herein contain IC50 values determined using the above assays (see Table 44).
In the case of `Cc1cc2c(O[C@@H](C)[C@@H]3CCCN3C)nc(-c3onc4c3CCC[C@@]43CCCc4sc(N)c(C#N)c43)nc2n1[C@@H]1CCOC1` [I-40], it took 182 nM to reach half-maximal inhibition (IC50).
`Cc1cn([C@@H]2CCOC2)c2nc(-c3onc4c3CCC[C@@]43CCCc4sc(N)c(C#N)c43)nc(O[C@@H](C)[C@@H]3CCCN3C)c12` [I-41] displayed an IC50 of 362 nM.
The compound `C[C@H](Oc1nc(-c2onc3c2CCC[C@@]32CCCc3sc(N)c(C#N)c32)nc2c1cnn2[C@@H]1CCOC1)[C@@H]1CCCN1C` [I-43] returned an IC50 of 255 nM.
On the same count and under the same terms, as for `C[C@H](Oc1nc(-c2noc3c2CCC[C@@]32CCCc3sc(N)c(C#N)c32)nc2c1CCCO[C@]21CCOC1)[C@@H]1CCCN1C` [II-10], the figure is 128 nM; as for `CO[C@H]1CCN(C)[C@@H]1[C@H](C)Oc1nc(-c2onc3c2CCC[C@@]32CCCc3sc(N)c(C#N)c32)nc2c1n(C)c(=O)n2[C@@H]1CCOC1` [I-23], 52 nM; as for `C[C@H](Oc1nc(-c2onc3c2CCC[C@@]32CCCc3sc(N)c(C#N)c32)nc2c1n(C)c(=O)n2[C@@H]1CCOC1)C12CCCN1CCC2` [I-25], 53 nM.
In turn, `C[C@H](Oc1nc(-c2onc3c2CCC[C@@]32CCCc3sc(N)c(C#N)c32)nc2c1ncn2[C@@H]1CCOC1)[C@@H]1CCCN1C` [I-38] showed an IC50 of 45 nM.
`C[C@H](Oc1nc(-c2onc3c2CCC[C@@]32CCCc3sc(N)c(C#N)c32)nc2c1n(C)c(=O)n2[C@@H]1CCOC1)[C@@H]1CC[C@H](C)N1C` [I-26]: half-maximal inhibition (IC50) required 58 nM.
Compound `C[C@H](Oc1nc(-c2noc3c2CCC[C@@]32CCCc3sc(N)c(C#N)c32)nc2c1COC[C@]21CCOC1)[C@@H]1CCCN1C` [II-8] displayed an IC50 of 17 nM.
The compound `C[C@H](Oc1nc(-c2noc3c2CCC[C@@]32CCCc3sc(N)c(C#N)c32)nc2c1CNC[C@]21CCOC1)[C@@H]1CCCN1C` [II-15] gave an IC50 of 18 nM.
Compound `CO[C@H]1CCN(C)[C@@H]1[C@H](C)Oc1nc(-c2noc3c2CCC[C@@]32CCCc3sc(N)c(C#N)c32)nc2c1n(C)c(=O)n2[C@@H]1CCOC1` [II-1] had an IC50 of 41 nM.
`C[C@H](Oc1nc(-c2onc3c2CCC[C@@]32CCCc3sc(N)c(C#N)c32)nc2c1n(C)c(=O)n2[C@H]1CCOC1)[C@@H]1CCCN1C` [I-9] showed an IC50 of 418 nM.

Another series addresses CYP3A4 (Homo sapiens (Human), UniProt P08684). Description: Mechanism based inhibition of CYP3A4 assay (MBI 3A4). The format is in vitro ADME. To be noted: human liver microsomes, 25 uM compound; hydroxy-midazolam formation after 30 min preincubation relative to 0 min. The procedure:
The time dependent inhibition towards CYP3A4 is assayed in human liver microsomes (0.02 mg/mL) with midazolam (15 μM) as a substrate. The test compounds and water control (wells w/o test compound) are preincubated in presence of NADPH (1 mM) with human liver microsomes (0.2 mg/mL) at a concentration of 25 uM for 0 min and 30 min. After preincubation, the incubate is diluted 1:10 and the substrate midazolam is added for the main incubation (15 min). The main incubation is quenched with acetonitrile and the formation of hydroxy-midazolam is quantified via LC/MS-MS. The formation of hydroxy-midazolam from the 30 min preincubation relative to the formation from the 0 min preincubation is used as a readout. Values of less than 100% mean that the substrate midazolam is metabolized to a lower extent upon 30 min preincubation compared to 0 min preincubation. In general low effects upon 30 min preincubation are desired (corresponding to values close to 100%/not different to the values determined with water control).
On the technique in general: Microsomes from liver hold many membrane-bound enzymes, among them those of drug oxidation.
In the case of `C[C@H](Oc1nc(-c2onc3c2CCC[C@@]32CCCc3sc(N)c(C#N)c32)nc2c1n(C)c(=O)n2[C@@H]1CCOC1)C12CCCN1CCC2` [I-25], the “MBI 3A4” value amounted to 60%.
Take `C[C@H](Oc1nc(-c2onc3c2CCC[C@@]32CCCc3sc(N)c(C#N)c32)nc2c1n(C)c(=O)n2[C@@H]1CCOC1)[C@@H]1CC[C@H](C)N1C` [I-26]: the “MBI 3A4” value turned out to be 83%.
Still for that read-out and setting: as for `C[C@H](Oc1nc(-c2noc3c2CCC[C@@]32CCCc3sc(N)c(C#N)c32)nc2c1COC[C@]21CCOC1)[C@@H]1CCCN1C` [II-8], the figure is 85%.
Turning to `C[C@H](Oc1nc(-c2onc3c2CCC[C@@]32CCCc3sc(N)c(C#N)c32)nc2c1n(C)c(=O)n2[C@H]1CCOC1)[C@@H]1CCCN1C` [I-9], the “MBI 3A4” value was 83%.

Test system in a further series: not listed separately
Description: Caco-2 assay (permeability and efflux ratio). To be noted: human, Caco-2 apical to basolateral permeability, pH 7.4, read-out: Caco PappAB. The format is in vitro ADME. The method, then:
The assay provides information on the potential of a compound to pass the cell membrane, on the extent of oral absorption as well as on whether the compound is actively transported by uptake and/or efflux transporters. Permeability measurements across polarized, confluent Caco-2 cell monolayers grown on permeable filter supports (Corning, catalog #3391) are used. 10 μM test compound solution in assay buffer (128.13 mM NaCl, 5.36 mM KCl, 1 mM MgSO4, 1.8 mM CaCl2), 4.17 mM NaHCO3, 1.19 mM Na2HPO4, 0.41 mM NaH2PO4, 15 mM 2-[4-(2-hydroxyethyl)piperazin-1-yl]ethanesulfonic acid (HEPES), 20 mM glucose, pH 7.4) was added to the donor compartment of the cell chamber containing a monolayer of Caco-2 cells in between the donor and the receiver compartment. The receiver and donor compartments contain 0.25% bovine serum albumine (BSA) in assay buffer. Passive diffusion and/or active transport of compounds across the monolayer is measured in both apical to basolateral (a-b) and basolateral to apical (b-a) direction. a-b permeability (PappAB) represents drug absorption from the intestine into the blood and b-a permeability (PappBA) drug secretion from the blood back into the intestine via both passive permeability as well as active transport mechanisms mediated by efflux and uptake transporters that are expressed on the Caco-2 cells. After a pre-incubation of 25-30 min at 37° C., at predefined time points (0, 30, 60 and 90 min), samples were taken from the receiver and donor compartment, respectively. Concentrations of test compounds in samples were measured by HPLC/MS/MS, samples from the donor compartment were diluted 1:50 (v:v) with assay buffer, samples from receiver compartment were measured without dilution.
Apparent permeabilities in a-b (PappAB) and b-a (PappBA) directions are calculated according to the formula:
[formula] • Vrec [mL]: buffer volume in receiver compartment • Cdon [μmol/mL]: concentration of test compound in donor compartment at t=0 • ΔCrec: difference between concentrations of test compound in receiver compartment at start and end of incubation time • Δt: Incubation time • Vrec·ΔCrec/Δt [μmol/min]: Amount of compound transferred to receiver compartment per time • A [cm^2]: filter surface
Caco-2 efflux ratios (ER) are calculated as the ratio of PappBA/PappAB.
(In general: Caco-2 cells form a polarised layer with tight junctions and transporters.)
Turning to `C[C@H](Oc1nc(-c2onc3c2CCC[C@@]32CCCc3sc(N)c(C#N)c32)nc2c1n(C)c(=O)n2[C@@H]1CCOC1)C12CCCN1CCC2` [I-25], the Papp A→B at 90 min, 10 μM was found to be 2.9 ×10⁻⁶ cm/s.
Same read-out and setting: as for `C[C@H](Oc1nc(-c2onc3c2CCC[C@@]32CCCc3sc(N)c(C#N)c32)nc2c1n(C)c(=O)n2[C@@H]1CCOC1)[C@@H]1CC[C@H](C)N1C` [I-26], the figure is 43 ×10⁻⁶ cm/s; as for `C[C@H](Oc1nc(-c2noc3c2CCC[C@@]32CCCc3sc(N)c(C#N)c32)nc2c1COC[C@]21CCOC1)[C@@H]1CCCN1C` [II-8], 23 ×10⁻⁶ cm/s.
Consider `C[C@H](Oc1nc(-c2onc3c2CCC[C@@]32CCCc3sc(N)c(C#N)c32)nc2c1n(C)c(=O)n2[C@H]1CCOC1)[C@@H]1CCCN1C` [I-9], for which the Papp A→B at 90 min, 10 μM came to 20 ×10⁻⁶ cm/s.

Still in this series, the particulars now being: human, pH 7.4, Caco-2 efflux ratio PappBA/PappAB, read-out: Caco ER.
As for `C[C@H](Oc1nc(-c2onc3c2CCC[C@@]32CCCc3sc(N)c(C#N)c32)nc2c1n(C)c(=O)n2[C@@H]1CCOC1)C12CCCN1CCC2` [I-25], the efflux ratio at 90 min, 10 μM was 18.6.
`C[C@H](Oc1nc(-c2onc3c2CCC[C@@]32CCCc3sc(N)c(C#N)c32)nc2c1n(C)c(=O)n2[C@@H]1CCOC1)[C@@H]1CC[C@H](C)N1C` [I-26]: the efflux ratio at 90 min, 10 μM was 1.
On the same count and under the same terms, the result for `C[C@H](Oc1nc(-c2noc3c2CCC[C@@]32CCCc3sc(N)c(C#N)c32)nc2c1COC[C@]21CCOC1)[C@@H]1CCCN1C` [II-8] reads 1.6; that for `C[C@H](Oc1nc(-c2onc3c2CCC[C@@]32CCCc3sc(N)c(C#N)c32)nc2c1n(C)c(=O)n2[C@H]1CCOC1)[C@@H]1CCCN1C` [I-9], 2.7.
